Assay results: paper PMC10709440, “High-throughput ligand profile characterization in novel cell lines expressing seven heterologous insect olfactory receptors for the detection of volatile plant biomarkers” (Scientific Reports, 2023)
Values joined by “and” are separate entries in the source; they are usually repeats but may differ in a detail not shown here. Equal entries are not always repeated. Where two headings read alike, the source gives them in different places.

Tests used:
[1] = target: T1, Drosophila OR10a (Drosophila melanogaster, UniProt Q9VYZ1); test: Calcium ion fluorescence (GCaMP6) assay, OR10a stable HEK293 cell line; assay type: cell-based; set-up: key to DF norm AVERAGE OR10a: VOC ∆F divided by the plate's mean ∆F response to 50 µM VUAA1
T1 construct: expressed in transfected cells
T1 sequence (Q9VYZ1 1-406): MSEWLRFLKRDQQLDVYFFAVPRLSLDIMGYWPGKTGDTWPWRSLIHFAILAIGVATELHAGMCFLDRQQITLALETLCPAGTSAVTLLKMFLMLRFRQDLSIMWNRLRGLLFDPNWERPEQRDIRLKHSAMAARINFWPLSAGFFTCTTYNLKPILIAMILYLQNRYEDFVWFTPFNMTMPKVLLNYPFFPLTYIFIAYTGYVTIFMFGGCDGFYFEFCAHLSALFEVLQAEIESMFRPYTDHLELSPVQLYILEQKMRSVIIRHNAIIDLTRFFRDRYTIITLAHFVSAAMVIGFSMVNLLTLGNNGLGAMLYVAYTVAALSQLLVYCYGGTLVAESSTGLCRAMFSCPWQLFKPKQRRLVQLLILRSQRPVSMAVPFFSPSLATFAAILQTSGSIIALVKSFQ
T1 sequence (Q9VNB5 1-486 partner): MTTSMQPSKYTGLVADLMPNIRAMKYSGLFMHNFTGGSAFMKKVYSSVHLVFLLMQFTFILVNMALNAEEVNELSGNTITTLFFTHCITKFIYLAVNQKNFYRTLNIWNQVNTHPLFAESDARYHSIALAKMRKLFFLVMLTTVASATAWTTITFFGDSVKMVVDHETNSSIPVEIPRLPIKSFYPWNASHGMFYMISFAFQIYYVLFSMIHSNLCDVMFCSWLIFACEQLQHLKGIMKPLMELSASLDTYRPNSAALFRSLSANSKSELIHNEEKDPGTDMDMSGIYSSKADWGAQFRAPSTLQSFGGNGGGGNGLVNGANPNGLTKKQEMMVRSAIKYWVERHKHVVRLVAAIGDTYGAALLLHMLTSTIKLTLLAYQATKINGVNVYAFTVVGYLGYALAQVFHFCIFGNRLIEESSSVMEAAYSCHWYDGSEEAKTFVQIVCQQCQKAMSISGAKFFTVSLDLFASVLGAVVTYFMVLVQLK
Procedure, shortened: (§1)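 Responses are VUAA1-normalized ΔF: each VOC-evoked calcium signal, (FMAX−F0)/F0 over 30 s after injection, divided by the same line's mean 50 µM VUAA1 response. Cells were doxycycline-induced HEK293 with GCaMP6 and the cognate Drosophila OR, in HEPES buffer pH 7.3; ligands tested 0.01–100 μM.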

[2] = target: T2, Drosophila OR47a (Drosophila melanogaster, UniProt P81921); test: Calcium ion fluorescence (GCaMP6) assay, OR47a stable HEK293 cell line; assay type: cell-based; set-up: key to DF norm AVERAGE OR47a: VOC ∆F divided by the plate's mean ∆F response to 50 µM VUAA1; details: for Average response: mean of biological replicates
T2 construct: expressed in transfected cells
T2 sequence (P81921 1-385): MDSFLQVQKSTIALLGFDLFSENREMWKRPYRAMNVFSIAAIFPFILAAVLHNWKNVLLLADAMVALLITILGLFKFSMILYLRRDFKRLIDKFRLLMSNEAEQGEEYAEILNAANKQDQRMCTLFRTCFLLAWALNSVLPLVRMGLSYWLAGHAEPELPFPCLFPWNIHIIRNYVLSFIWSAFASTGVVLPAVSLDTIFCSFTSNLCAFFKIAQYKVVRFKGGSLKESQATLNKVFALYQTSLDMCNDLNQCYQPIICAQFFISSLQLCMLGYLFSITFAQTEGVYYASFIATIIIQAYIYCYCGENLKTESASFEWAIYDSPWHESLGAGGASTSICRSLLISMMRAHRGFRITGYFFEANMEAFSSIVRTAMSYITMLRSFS
T2 sequence (Q9VNB5 1-486 partner): T1 sequence (Q9VNB5 1-486 partner)
Procedure, shortened: as §1

[3] = OR47a cell line, odorant cc. 1 µM
[4] = OR47a cell line, odorant cc. 10 µM
[5] = OR47a cell line, odorant cc. 100 µM
[6] = concentration 1, normalized fluorescence change, values below 0.05 threshold given as 0
[7] = concentration 10, normalized fluorescence change, values below 0.05 threshold given as 0
[8] = concentration 100, normalized fluorescence change, values below 0.05 threshold given as 0
[9] = HEK293, 1 μM VOC, 50 μM VUAA1 = 1, responses not exceeding 0.05 considered 0, read-out: OR10a Average response (VUAA1-normalized)
[10] = HEK293, 10 μM VOC, 50 μM VUAA1 = 1, responses not exceeding 0.05 considered 0, read-out: OR10a Average response (VUAA1-normalized)
[11] = HEK293, 100 μM VOC, 50 μM VUAA1 = 1, responses not exceeding 0.05 considered 0, read-out: OR10a Average response (VUAA1-normalized)
[12] = HEK293, read-out: OR10a response (VUAA1-normalized response), VOC concentration 1 μM
[13] = HEK293, read-out: OR10a response (VUAA1-normalized response), VOC concentration 10 μM
[14] = HEK293, read-out: OR10a response (VUAA1-normalized response), VOC concentration 100 μM
[15] = HEK293, read-out: OR47a Average response (VUAA1-normalized)
[16] = HEK293, read-out: OR47a response (VUAA1-normalized response)
[17] = HEK293, read-out: OR10a Average response (VUAA1-normalized)
[18] = HEK293, read-out: OR10a response (VUAA1-normalized response)
[19] = ligand concentration 1 (unit not given), threshold 0.05, below shown as 0
[20] = ligand concentration 10 (unit not given), threshold 0.05, below shown as 0
[21] = ligand concentration 100 (unit not given), threshold 0.05, below shown as 0

CC1=CCC[C@@]2(C)[C@@H]3CC[C@]12CC3(C)C [(−)-α-neoclovene]
OR10a Average response (VUAA1-normalized) ([1]; 1 μM VOC, 50 μM VUAA1 = 1, responses not exceeding 0.05 considered 0): 0.00
OR10a Average response (VUAA1-normalized) ([1]; 10 μM VOC, 50 μM VUAA1 = 1, responses not exceeding 0.05 considered 0): 0.13
OR10a Average response (VUAA1-normalized) ([1]; 100 μM VOC, 50 μM VUAA1 = 1, responses not exceeding 0.05 considered 0): 0.12
OR10a response (VUAA1-normalized response) ([1]; VOC concentration 1 μM): 0.00
OR10a response (VUAA1-normalized response) ([1]; VOC concentration 10 μM): 0.13
OR10a response (VUAA1-normalized response) ([1]; VOC concentration 100 μM): 0.12
Average response [2, 3]: 0.00
Average response [2, 4]: 0.00
Average response [2, 5]: 0.018
OR47a response (VUAA1-normalized response) ([2]; VOC concentration 1 μM): 0.00
OR47a response (VUAA1-normalized response) ([2]; VOC concentration 10 μM): 0.00
OR47a response (VUAA1-normalized response) ([2]; VOC concentration 100 μM): 0.00
DF norm AVERAGE OR47a [2, 6]: 0
DF norm AVERAGE OR47a [2, 7]: 0
DF norm AVERAGE OR47a [2, 8]: 0

CC/C=C\CCO [E-3-hexenol]
OR10a response (VUAA1-normalized response) ([1]; VOC concentration 1 μM): 0.00
OR10a response (VUAA1-normalized response) ([1]; VOC concentration 10 μM): 0.00
OR10a response (VUAA1-normalized response) ([1]; VOC concentration 100 μM): 0.074
OR47a response (VUAA1-normalized response) ([2]; VOC concentration 1 μM): 0.06
OR47a response (VUAA1-normalized response) ([2]; VOC concentration 10 μM): 0.00
OR47a response (VUAA1-normalized response) ([2]; VOC concentration 100 μM): 0.14

CCCCCC(C)=O [2-heptanone]
DF norm AVERAGE OR10a [1]: 0
activation at 1 µM [1, 9]: 3%
activation at 10 µM [1, 10]: 4%
activation at 100 µM [1, 11]: 4%
activation at 1 µM [1, 12]: 0%
activation at 10 µM [1, 13]: 0%
activation at 100 µM [1, 14]: 0%
activation at 1 µM [2, 15]: 3%
activation at 10 µM [2, 15]: 19%
activation at 100 µM [2, 15]: 46%
activation at 1 µM [2, 16]: 0%
activation at 10 µM [2, 16]: 19%
activation at 100 µM [2, 16]: 46%
Average response [2, 3]: 0.03
Average response [2, 4]: 0.19
Average response [2, 5]: 0.46
DF norm AVERAGE OR47a [2, 6]: 0
DF norm AVERAGE OR47a [2, 7]: 0.1895
DF norm AVERAGE OR47a [2, 8]: 0.4589

CCCCC(C)=O [2-hexanone]
activation at 1 µM ([1]; HEK293, read-out: OR10a Average response (VUAA1-normalized), 1 μM VOC, 50 μM VUAA1 = 1, responses not exceeding 0.05 considered 0): 10%
activation at 10 µM ([1]; HEK293, read-out: OR10a Average response (VUAA1-normalized), 10 μM VOC, 50 μM VUAA1 = 1, responses not exceeding 0.05 considered 0): 0%
activation at 100 µM ([1]; HEK293, read-out: OR10a Average response (VUAA1-normalized), 100 μM VOC, 50 μM VUAA1 = 1, responses not exceeding 0.05 considered 0): 0%
activation at 1 µM [1, 12]: 10%
activation at 10 µM [1, 13]: 0%
activation at 100 µM [1, 14]: 0%
DF norm AVERAGE OR10a [1, 6]: 0.09901
DF norm AVERAGE OR10a [1, 7]: 0
DF norm AVERAGE OR10a [1, 8]: 0
activation at 1 µM [2, 15]: 4%
activation at 10 µM [2, 15]: 0%
activation at 100 µM [2, 15]: 16%
activation at 1 µM [2, 16]: 0%
activation at 10 µM [2, 16]: 0%
activation at 100 µM [2, 16]: 16%
Average response [2, 3]: 0.0368
Average response [2, 4]: 0.00
Average response [2, 5]: 0.16
DF norm AVERAGE OR47a [2, 6]: 0
DF norm AVERAGE OR47a [2, 7]: 0
DF norm AVERAGE OR47a [2, 8]: 0.1643

CCc1ccccc1 [ethylbenzene]
activation at 1 µM [1, 17]: 17%
activation at 10 µM [1, 17]: 3.3%
activation at 100 µM [1, 17]: 6%
activation at 1 µM [1, 18]: 17%
activation at 10 µM [1, 18]: 0%
activation at 100 µM [1, 18]: 6%
DF norm AVERAGE OR10a [1, 19]: 0.1713
DF norm AVERAGE OR10a [1, 20]: 0
DF norm AVERAGE OR10a [1, 21]: 0.05742
activation at 1 µM [2, 16]: 0%
activation at 10 µM [2, 16]: 0%
activation at 100 µM [2, 16]: 0%
Average response [2, 3]: 0.0189
Average response [2, 4]: 0.0233
Average response [2, 5]: 0.00
DF norm AVERAGE OR47a [2, 19]: 0
DF norm AVERAGE OR47a [2, 20]: 0
DF norm AVERAGE OR47a [2, 21]: 0

OCCc1ccccc1 [phenethyl alcohol]
activation at 1 µM [1, 9]: 3%
activation at 10 µM [1, 10]: 6%
activation at 100 µM [1, 11]: 3%
OR10a response (VUAA1-normalized) at 1 μM ([1]; OR10a cell line, VOC concentration 1 μM): 0.00
OR10a response (VUAA1-normalized) at 10 μM ([1]; OR10a cell line, VOC concentration 10 μM): 0.06
OR10a response (VUAA1-normalized) at 100 μM ([1]; OR10a cell line, VOC concentration 100 μM): 0.00
DF norm AVERAGE OR10a [1, 19]: 0
DF norm AVERAGE OR10a [1, 20]: 0.05732
DF norm AVERAGE OR10a [1, 21]: 0
OR47a response (VUAA1-normalized) at 1 μM ([2]; OR47a cell line, VOC concentration 1 μM): 0.0564
OR47a response (VUAA1-normalized) at 10 μM ([2]; OR47a cell line, VOC concentration 10 μM): 0.0644
OR47a response (VUAA1-normalized) at 100 μM ([2]; OR47a cell line, VOC concentration 100 μM): 0.057
Average response [2, 3]: 0.0564
Average response [2, 4]: 0.0644
Average response [2, 5]: 0.057
DF norm AVERAGE OR47a [2, 19]: 0.05643
DF norm AVERAGE OR47a [2, 20]: 0.06438
DF norm AVERAGE OR47a [2, 21]: 0.05701

CCCCCCCCC(CO)CCCCCC (centres unmarked) [2-hexyl-1-decanol]
DF norm AVERAGE OR10a [1]: 0.1461 and 0.1055 and 0.1938
activation at 1 µM [1, 9]: 15%
activation at 10 µM [1, 10]: 11%
activation at 100 µM [1, 11]: 19%
activation at 1 µM [1, 12]: 15%
activation at 10 µM [1, 13]: 11%
activation at 100 µM [1, 14]: 19%
activation at 1 µM [2, 16]: 0%
activation at 10 µM [2, 16]: 0%
activation at 100 µM [2, 16]: 0%
Average response [2, 3]: 0.00
Average response [2, 4]: 0.05
Average response [2, 5]: 0.00
DF norm AVERAGE OR47a [2, 6]: 0
DF norm AVERAGE OR47a [2, 7]: 0
DF norm AVERAGE OR47a [2, 8]: 0
